Each structure is given as a SMILES string.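 These data come from cells grown in 96-well plates and exposed to compound for 48 hours at five concentrations. Here, GI50 denotes the concentration required for 50% inhibition of growth. Definition used: TGI = concentration required for complete inhibition of growth.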 A value given as a limit tells only on which side of the number the result lay.

Test systems include A498 renal; HCT-116 colon; HOP-92 NSCLC; K-562 leukemia; LOX IMVI melanoma; MOLT-4 leukemia; NCI-H226 lung; NCI-H23 lung; SF-268 CNS; SF-295 CNS.
Common to all, as to experiment: inhibition of tumour cell growth, NCI panel, 48 h

Regarding `CCOc1ccccc1NC(=O)CC1C(=O)Nc2ccccc2S1=O` (configuration not stated), the TGI in the test on A498 renal was over 100 µM; in the test on HCT-116 colon it was over 100 µM; in the test on HOP-92 NSCLC it was over 100 µM; with K-562 leukemia, over 100 µM; in the test on LOX IMVI melanoma it was over 100 µM; in the test with MOLT-4 leukemia, 39.5 µM. Also, the TGI in the test on NCI-H226 lung, in the test on NCI-H23 lung, with SF-268 CNS and in the test with SF-295 CNS was over 100 µM each time.

For the molecule `CC[C@]1(O)CC(OC2CC(N(C)C)C(O)C(C)O2)c2c(cc3c(c2O)C(=O)c2c(O)cccc2C3=O)[C@@H]1C(=O)OC` (some centres not stated), the TGI in the test with A498 renal turned out to be 1.13 µM; with HCT-116 colon, 10.4 µM; in the test with HOP-92 NSCLC, 1.51 µM; with K-562 leukemia, 0.982 µM; with LOX IMVI melanoma it was 0.635 µM; with MOLT-4 leukemia it was 0.677 µM. In addition, the TGI came out at 2.17 µM with NCI-H226 lung, 2.47 µM in the test on NCI-H23 lung, 2.2 µM in the test with SF-268 CNS and 3.31 µM in the test with SF-295 CNS.

Consider `Nc1c(C(=O)c2cccc(CCCN3CCOCC3)c2)cnn1-c1ccc(F)cc1`, for which the GI50 with A498 renal was over 17.6 µM; in the test with HCT-116 colon, over 25 µM; in the test on HOP-92 NSCLC it was 7.01 µM; in the test on K-562 leukemia, over 25 µM; in the test on LOX IMVI melanoma, over 25 µM; with MOLT-4 leukemia it was over 25 µM. The GI50 with NCI-H226 lung, in the test with NCI-H23 lung, in the test on SF-268 CNS and in the test on SF-295 CNS was over 25 µM throughout. In addition, the TGI in the test on A498 renal, with HCT-116 colon, in the test with HOP-92 NSCLC, in the test on K-562 leukemia, with LOX IMVI melanoma and in the test with MOLT-4 leukemia was over 25 µM throughout. In addition, the TGI in the test with NCI-H226 lung, in the test with NCI-H23 lung, with SF-268 CNS and with SF-295 CNS was over 25 µM in each case.

`NC(=O)NNCc1ccccc1`: the TGI in the test on A498 renal, in the test with HCT-116 colon, with HOP-92 NSCLC, with K-562 leukemia, in the test on LOX IMVI melanoma and in the test on MOLT-4 leukemia was over 100 µM in each case. Moreover, the TGI in the test with NCI-H226 lung, with NCI-H23 lung, in the test on SF-268 CNS and in the test on SF-295 CNS was over 100 µM each time.

With `CCCCCCCCCCCCNC(C)=O`, the TGI in the test on A498 renal is 68 µM; with HCT-116 colon, 37 µM; with HOP-92 NSCLC, 19.2 µM; in the test on LOX IMVI melanoma, 23.1 µM; in the test with NCI-H226 lung, 35.9 µM; with NCI-H23 lung, 29.9 µM. In addition, the TGI in the test on SF-268 CNS was determined as 29.5 µM; in the test on SF-295 CNS, 34.4 µM.

With `CCOC(=O)c1c2c(c(O)c3ccccc3c(O)n(Cc3ccc(OC)cc3)c1C)C(=O)C=CC2=O`, the GI50 in the test with A498 renal was over 100 µM; in the test on HCT-116 colon it was over 100 µM; in the test with HOP-92 NSCLC, over 100 µM; in the test with K-562 leukemia, 76.9 µM; in the test with LOX IMVI melanoma, over 100 µM; with MOLT-4 leukemia, 76 µM. The GI50 in the test on NCI-H226 lung was 65.3 µM; with NCI-H23 lung, over 100 µM; in the test on SF-268 CNS, over 100 µM; in the test on SF-295 CNS it was over 100 µM. In addition, the TGI with A498 renal, in the test on HCT-116 colon, in the test with HOP-92 NSCLC, in the test with K-562 leukemia, in the test with LOX IMVI melanoma and with MOLT-4 leukemia was over 100 µM in each case. In addition, the TGI with NCI-H226 lung, in the test with NCI-H23 lung, in the test with SF-268 CNS and with SF-295 CNS was over 100 µM throughout.

Consider `COc1cc(NS(C)(=O)=O)ccc1Nc1c2ccc([N+](=O)[O-])cc2nc2c(C)cccc12`, for which the GI50 in the test on A498 renal was 0.226 µM; with HCT-116 colon, 0.361 µM; with HOP-92 NSCLC, 0.111 µM; with K-562 leukemia it was 0.801 µM; with LOX IMVI melanoma, 0.15 µM; with MOLT-4 leukemia it was 0.0409 µM. Moreover, the GI50 was 0.338 µM in the test on NCI-H226 lung, 0.567 µM in the test with NCI-H23 lung, 0.256 µM in the test on SF-268 CNS and 0.171 µM in the test on SF-295 CNS. In addition, the TGI amounted to 2.92 µM with A498 renal; 10.7 µM in the test with HCT-116 colon; 1.68 µM in the test on HOP-92 NSCLC; 9.89 µM with K-562 leukemia; 2.38 µM in the test on LOX IMVI melanoma; 4.37 µM in the test on MOLT-4 leukemia. In addition, the TGI turned out to be 4.16 µM in the test with NCI-H226 lung, 9.26 µM in the test on NCI-H23 lung, 13.1 µM with SF-268 CNS and 11.1 µM with SF-295 CNS.

Take `COc1cc(/C=C/c2ccncc2)cc(OC)c1OC`: the TGI with A498 renal, in the test on HCT-116 colon, with HOP-92 NSCLC, in the test on K-562 leukemia, in the test with LOX IMVI melanoma and in the test on MOLT-4 leukemia was over 100 µM throughout. The TGI in the test with NCI-H226 lung, with NCI-H23 lung, in the test on SF-268 CNS and in the test on SF-295 CNS was over 100 µM in each case.

As to `C=C1C(=O)O[C@H]2[C@H]1CC/C(CNC(=O)Cc1c[nH]c3ccccc13)=C\CC[C@@]1(C)O[C@@H]21`, the GI50 was 13.8 µM in the test on A498 renal; 0.533 µM in the test on HCT-116 colon; 2.17 µM in the test with HOP-92 NSCLC; 0.337 µM in the test on K-562 leukemia; 0.355 µM with LOX IMVI melanoma; 1.83 µM with MOLT-4 leukemia. In addition, the GI50 was 2.42 µM in the test on NCI-H226 lung, 3.54 µM in the test on NCI-H23 lung, 2.62 µM in the test with SF-268 CNS and 13 µM in the test with SF-295 CNS. The TGI in the test with A498 renal was 26.9 µM; in the test with HCT-116 colon it was 2.55 µM; with HOP-92 NSCLC it was 5.25 µM; with K-562 leukemia, 11.1 µM; in the test on LOX IMVI melanoma it was 1.54 µM; with MOLT-4 leukemia, 5.75 µM. Besides, the TGI in the test on NCI-H226 lung turned out to be 7.81 µM; with NCI-H23 lung it was 18.6 µM; in the test on SF-268 CNS, 16.3 µM; with SF-295 CNS, 26.6 µM.

With `O=[N+]([O-])c1ccc(S(=O)(=O)Cc2ccccc2)c([N+](=O)[O-])c1`, the TGI with A498 renal is 31.1 µM; in the test with HCT-116 colon it was 3.51 µM; in the test with HOP-92 NSCLC, 3.38 µM; in the test with K-562 leukemia, over 100 µM; with LOX IMVI melanoma, 3.39 µM; in the test on NCI-H226 lung, 43.3 µM. For the same molecule, the results for the TGI in the test on NCI-H23 lung, with SF-268 CNS and in the test on SF-295 CNS were 3.52 µM, 14.5 µM and 33.6 µM, respectively.

Values taken from PubChem BioAssay (NCI).
